Changes are numbered by the printed parent chain. Ends that are not written are not given here.
Experiments:
Assay in all cases: BRET assay using TRUPATH biosensors, Gi activation of ADGRF1
Type in all cases: cell-based
ADGRF1 [1] = biological target: T1, ADGRF1 (Homo sapiens, UniProt Q5T601, A683G); details: ADGRF1 A683^3.55bG
T1 construct: Flag (N); expressed in transfected cells; host or cells: HEK293F
Procedure, shortened: (§1)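 HEK293F cells transiently co-transfected with wild-type or mutant receptor, Gα-RLuc8 (GαsS for Gs, Gαi1 for Gi), Gβ3 and Gγ9-GFP2 at 2:1:1:1. After 30 min at 37 °C and coelenterazine 400a, cells stimulated with synthetic stalk peptide. BRET = GFP2/RLuc8 emission, last of five readings.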

ADGRF1 [2] = biological target: T2, ADGRF1 (Homo sapiens, UniProt Q5T601, H820A); details: ADGRF1 H820^7.39bA
T2 construct: Flag (N); expressed in transfected cells; host or cells: HEK293F
T2 sequence (Q5T601 20-910 H820A): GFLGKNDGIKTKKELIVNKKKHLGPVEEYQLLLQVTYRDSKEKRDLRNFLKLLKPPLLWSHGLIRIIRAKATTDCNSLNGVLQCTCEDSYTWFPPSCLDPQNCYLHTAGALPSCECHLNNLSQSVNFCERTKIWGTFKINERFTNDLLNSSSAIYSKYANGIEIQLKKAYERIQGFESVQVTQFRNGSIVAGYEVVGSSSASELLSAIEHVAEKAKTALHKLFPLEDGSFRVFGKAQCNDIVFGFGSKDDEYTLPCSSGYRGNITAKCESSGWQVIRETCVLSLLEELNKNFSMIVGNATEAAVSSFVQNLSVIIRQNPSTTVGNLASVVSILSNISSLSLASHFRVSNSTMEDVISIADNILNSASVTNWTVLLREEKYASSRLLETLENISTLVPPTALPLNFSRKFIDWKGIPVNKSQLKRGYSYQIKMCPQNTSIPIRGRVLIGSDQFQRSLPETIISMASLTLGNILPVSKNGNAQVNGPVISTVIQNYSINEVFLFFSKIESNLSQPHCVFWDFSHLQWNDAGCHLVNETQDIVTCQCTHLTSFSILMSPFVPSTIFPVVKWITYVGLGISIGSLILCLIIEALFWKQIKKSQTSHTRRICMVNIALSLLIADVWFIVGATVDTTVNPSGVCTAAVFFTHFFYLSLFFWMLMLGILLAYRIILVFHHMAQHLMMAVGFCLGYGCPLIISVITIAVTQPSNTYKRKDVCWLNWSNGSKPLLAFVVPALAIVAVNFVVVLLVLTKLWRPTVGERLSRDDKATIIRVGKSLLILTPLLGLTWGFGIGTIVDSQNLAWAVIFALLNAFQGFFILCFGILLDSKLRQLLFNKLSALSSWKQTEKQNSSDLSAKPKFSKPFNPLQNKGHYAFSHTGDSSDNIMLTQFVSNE
Procedure, shortened: as §1

ADGRF1 [3] = biological target: T3, ADGRF1 (Homo sapiens, UniProt Q5T601, K791A); details: ADGRF1 K791^6.40bA
T3 construct: Flag (N); expressed in transfected cells; host or cells: HEK293F
T3 sequence (Q5T601 20-910 K791A): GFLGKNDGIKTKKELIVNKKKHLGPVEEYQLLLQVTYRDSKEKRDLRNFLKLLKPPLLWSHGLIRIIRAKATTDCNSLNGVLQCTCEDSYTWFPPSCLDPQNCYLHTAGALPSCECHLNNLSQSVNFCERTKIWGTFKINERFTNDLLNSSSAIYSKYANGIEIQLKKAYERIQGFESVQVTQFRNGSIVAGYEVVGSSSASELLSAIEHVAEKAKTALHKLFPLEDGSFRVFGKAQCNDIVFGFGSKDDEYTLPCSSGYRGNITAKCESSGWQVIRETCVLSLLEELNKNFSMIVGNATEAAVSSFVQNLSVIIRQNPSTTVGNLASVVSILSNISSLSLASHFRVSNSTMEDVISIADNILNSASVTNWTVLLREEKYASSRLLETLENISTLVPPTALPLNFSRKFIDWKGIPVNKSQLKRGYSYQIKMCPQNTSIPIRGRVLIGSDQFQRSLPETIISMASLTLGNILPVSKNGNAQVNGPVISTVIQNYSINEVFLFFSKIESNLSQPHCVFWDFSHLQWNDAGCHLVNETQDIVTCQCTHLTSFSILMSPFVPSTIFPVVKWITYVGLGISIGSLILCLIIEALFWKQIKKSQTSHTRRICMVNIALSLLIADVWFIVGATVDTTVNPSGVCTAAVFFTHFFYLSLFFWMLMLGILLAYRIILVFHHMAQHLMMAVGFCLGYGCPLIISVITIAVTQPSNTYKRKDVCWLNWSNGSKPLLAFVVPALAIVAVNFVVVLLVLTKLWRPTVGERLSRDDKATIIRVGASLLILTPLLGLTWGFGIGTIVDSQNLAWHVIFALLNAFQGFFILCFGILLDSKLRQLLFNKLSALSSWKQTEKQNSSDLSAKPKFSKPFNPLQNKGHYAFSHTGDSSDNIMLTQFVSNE
Procedure, shortened: as §1

ADGRF1 [4] = biological target: T4, ADGRF1 (Homo sapiens, UniProt Q5T601, L681A); details: ADGRF1 L681^3.53bA
T4 construct: Flag (N); expressed in transfected cells; host or cells: HEK293F
T4 sequence (Q5T601 20-910 L681A): as the sequence (Q5T601 20-910 H820A) above, with L662A, A801H counted along it
Procedure, shortened: as §1

ADGRF1 [5] = biological target: T5, ADGRF1 (Homo sapiens, UniProt Q5T601, L752A); details: ADGRF1 L752^5.44bA
T5 construct: Flag (N); expressed in transfected cells; host or cells: HEK293F
T5 sequence (Q5T601 20-910 L752A): as the sequence (Q5T601 20-910 H820A) above, with L733A, A801H counted along it
Procedure, shortened: as §1

ADGRF1 [6] = biological target: T6, ADGRF1 (Homo sapiens, UniProt Q5T601, L769A); details: ADGRF1 L769^5.61bA
T6 construct: Flag (N); expressed in transfected cells; host or cells: HEK293F
T6 sequence (Q5T601 20-910 L769A): T3 sequence (Q5T601 20-910 K791A) with L750A, A772K
Procedure, shortened: as §1

ADGRF1 [7] = biological target: T7, ADGRF1 (Homo sapiens, UniProt Q5T601, Q830A); details: ADGRF1 Q830^7.49bA
T7 construct: Flag (N); expressed in transfected cells; host or cells: HEK293F
T7 sequence (Q5T601 20-910 Q830A): as the sequence (Q5T601 20-910 H820A) above, with A801H, Q811A counted along it
Procedure, shortened: as §1

[8] = n = 3, read-out: pEC50 (mean ± s.e.m.) (converted)

T1 sequence (Q5T601 20-910 A683G): as the sequence (Q5T601 20-910 H820A) above, with A664G, A801H counted along it

TSFSILMSPFVP [pF1]
Emax (mean ± s.e.m.) (ADGRF1 [1]; n = 3): 111 ± 13 % of WT
EC50 (ADGRF1 [1]; [8]): 339 nM
Emax (mean ± s.e.m.) (ADGRF1 [2]; n = 3): 126 ± 12 % of WT
EC50 (ADGRF1 [2]; [8]): 275 nM
Emax (mean ± s.e.m.) (ADGRF1 [3]; n = 3): 102 ± 13 % of WT
EC50 (ADGRF1 [3]; [8]): 102 nM
Emax (mean ± s.e.m.) (ADGRF1 [4]; n = 3): 59 ± 10 % of WT
EC50 (ADGRF1 [4]; [8]): 120 nM
Emax (mean ± s.e.m.) (ADGRF1 [5]; n = 3): 90 ± 15 % of WT
EC50 (ADGRF1 [5]; [8]): 513 nM
Emax (mean ± s.e.m.) (ADGRF1 [6]; n = 3): 102 ± 12 % of WT
EC50 (ADGRF1 [6]; [8]): 302 nM
Emax (mean ± s.e.m.) (ADGRF1 [7]; n = 3): 124 ± 15 % of WT
EC50 (ADGRF1 [7]; [8]): 851 nM
